PubChem BioAssay AID2060909 (Molecular Pharmacology Branch, DTP, NCI, 2025)

System: 362531-283-R-J2-PDC complex spheroid viability
Test: Anticancer human tumor 362531-283-R-J2-PDC patient-derived colon adenocarcinoma cell line growth inhibition [RAS]
Details: for IC50: curve of first compound; for viability, T/C: stronger effect = lower value
Excerpt: RAS pathway inhibitors in Combinations in Complex Spheroids
A high-throughput screen of multi-cell type tumor spheroids was designed to identify active combinations of RAS pathway inhibitors and targeted small molecules. Complex spheroids include a stromal component modeled by human endothelial cells (HUVEC) and fibroblasts modeled by human mesenchymal stem cells (MSCs). The concentration ranges selected for each drug and investigational agent were based upon clinically achievable concentrations if the clinical Cmax of the agent was known.
Compounds. The drugs and investigational agents: abemaciclib (NSC768073), cobimetinib (NSC768068), divarasib (GDC6063, NSC841802), docetaxel (NSC628503), GDC-1971 (RLY-1971, NSC841576), gemcitabine (NSC613327), inavolisib (NSC800729), ipatasertib (NSC767898), KB-0742 (NSC834161), MRTX-1133 (NSC836407), osimertinib (NSC779217), RMC-4630 (NSC839698), RMC-6236 (NSC851965), RMC-6291 (NSC852671), Ro-3306 (NSC812927), sapanisertib (NSC764658), SN-38 (NSC673596), staurosporine (NSC755774), SY5609 (NSC837396), and tovorafenib (DAY101, NSC766906), were obtained from the National Cancer Institute (NCI) Developmental Therapeutics Program Chemical Repository. The FDA-approved anticancer drug set is available from the NCI Developmental Therapeutics Program. […] The stock solutions were prepared in dimethyl sulfoxide (DMSO, Sigma-Aldrich, St. Louis, MO, cat. D2650) at 800-fold the tested concentration and stored at -70 degrees C prior to their use. All drugs and investigational agents were tested over a range starting from a high concentration at or near the clinical Cmax and decreasing in half-log increments. If the clinical Cmax for an agent had not been determined, the highest concentration tested was 10 microM.
Cell Culture. All cells were maintained in an incubator at 37 degrees C and 5% CO2 with 95% humidity. The PDC lines were cultured according to standard operating procedures established by the NCI PDMR. All PDCs were thawed and cultured in Matrigel-coated flasks prepared with a working solution of 1X Ham's F-12 nutrient mix, without supplementation (Invitrogen, Waltham, MA, cat. 11765054), 100 U/mL penicillin-streptomycin (Invitrogen, cat. 15140122), and 2.5% Matrigel (Corning Inc., Corning, NY, cat. 354248) for the first three passages. The 362531-283-R-J2-PDC and 782815-120-R-J1-PDC lines were cultured in 6C/Colon 1B media, which includes advanced DMEM/F-12 (Thermo Fisher Scientific, cat. 12634028), 10 mM HEPES (Thermo Fisher Scientific, cat. 15630080), 1X GlutaMAX supplement (Thermo Fisher Scientific, cat. 35050061), 0.1 mg/mL primocin (InvivoGen, San Diego, CA, cat. ant-pm-2), 10% defined fetal bovine serum, heat inactivated (HyClone Laboratories Inc., Logan, UT, cat. SH30070.03HI), 50% L-WRN conditioned media (ATCC, cat. CRL-3276), 1.25 mM N-Acetyl-L-cysteine (Sigma-Aldrich, cat. A9165), 10 mM nicotinamide (Sigma-Aldrich, cat. N0636), 1X B-27 supplement (Thermo Fisher Scientific, cat. 17504044), 1X N-2 supplement (Thermo Fisher Scientific, cat. 17502048), 50 ng/mL human EGF (Thermo Fisher Scientific, cat. PHG0311), and 10 microM Y-27632 dihydrochloride (Tocris Bioscience, cat. 1254). The K12877-001-R-J1-PDC line was cultured in 6I media, which includes all 6C/Colon 1B media plus 10 ng/mL human FGF-10 (PeproTech, cat. 100-26), 1 ng/mL human FGF-2 (PeproTech, cat. 100-18B), 1 µM prostaglandin E2 (Tocris Bioscience, cat. 2296), […] hydrocortisone (Sigma-Aldrich, cat. H4001), and […] bovine insulin (Sigma-Aldrich, cat. I6634). The K86415-001-R-J1-PDC line was cultured in 6D media, which includes all 6C/Colon 1B media components minus the L-WRN conditioned media. The 485176-168-R4-J1-PDC was cultured in PANC media, which includes all 6C/Colon 1B media plus 100 ng/mL human FGF-10 (PeproTech, cat. 100-26), 500 nM SB-431542 (Selleckchem, cat. S1067), and 10 nM gastrin (Tocris Bioscience, cat. 3006). […]
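Note: spheroids exposed to the agents for 7 days before readout.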
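Throughout, for viability, T/C: luminescence viability as percent of DMSO vehicle control wells.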

IC50 (second compound 0.0316 µM): 526 nM
IC50 (second compound 0.1 µM): 472 nM
IC50 (second compound 0.316 µM): 158 nM
IC50 (second compound 1 µM): 110 nM
IC50 (second compound 3.16 µM): 48.9 nM
IC50 (second compound 10 µM): 5.45 nM
Structure (SMILES): C=CC(=O)Nc1cc(Nc2nccc(-c3cn(C)c4ccccc34)n2)c(OC)cc1N(C)CCN(C)C + C#Cc1c(F)ccc2cc(O)cc(-c3ncc4c(N5CC6CCC(C5)N6)nc(OCC56CCCN5CC(F)C6)nc4c3F)c12
viability, T/C (second compound 0.0316 µM, first compound 0.00316 µM): 96.8%
viability, T/C (second compound 0.0316 µM, first compound 0.01 µM): 96.6%
viability, T/C (second compound 0.0316 µM, first compound 0.0316 µM): 97.7%
viability, T/C (second compound 0.0316 µM, first compound 0.1 µM): 89.7%
viability, T/C (second compound 0.0316 µM, first compound 0.316 µM): 78.1%
viability, T/C (second compound 0.0316 µM, first compound 1 µM): 15.8%
viability, T/C (second compound 0.1 µM, first compound 0.00316 µM): 93%
viability, T/C (second compound 0.1 µM, first compound 0.01 µM): 96.6%
viability, T/C (second compound 0.1 µM, first compound 0.0316 µM): 91.6%
viability, T/C (second compound 0.1 µM, first compound 0.1 µM): 84.8%
viability, T/C (second compound 0.1 µM, first compound 0.316 µM): 71.3%
viability, T/C (second compound 0.1 µM, first compound 1 µM): 12.4%
viability, T/C (second compound 0.316 µM, first compound 0.00316 µM): 95.9%
viability, T/C (second compound 0.316 µM, first compound 0.01 µM): 94.4%
viability, T/C (second compound 0.316 µM, first compound 0.0316 µM): 84.1%
viability, T/C (second compound 0.316 µM, first compound 0.1 µM): 69.8%
viability, T/C (second compound 0.316 µM, first compound 0.316 µM): 20.8%
viability, T/C (second compound 0.316 µM, first compound 1 µM): 14.4%
viability, T/C (second compound 1 µM, first compound 0.00316 µM): 80.9%
viability, T/C (second compound 1 µM, first compound 0.01 µM): 78.3%
viability, T/C (second compound 1 µM, first compound 0.0316 µM): 73%
viability, T/C (second compound 1 µM, first compound 0.1 µM): 53.7%
viability, T/C (second compound 1 µM, first compound 0.316 µM): 19.9%
viability, T/C (second compound 1 µM, first compound 1 µM): 14.4%
viability, T/C (second compound 3.16 µM, first compound 0.00316 µM): 63.5%
viability, T/C (second compound 3.16 µM, first compound 0.01 µM): 66.4%
viability, T/C (second compound 3.16 µM, first compound 0.0316 µM): 55.7%
viability, T/C (second compound 3.16 µM, first compound 0.1 µM): 38.7%
viability, T/C (second compound 3.16 µM, first compound 0.316 µM): 16.2%
viability, T/C (second compound 3.16 µM, first compound 1 µM): 13.8%
viability, T/C (second compound 10 µM, first compound 0.00316 µM): 57.3%
viability, T/C (second compound 10 µM, first compound 0.01 µM): 41.4%
viability, T/C (second compound 10 µM, first compound 0.0316 µM): 32.5%
viability, T/C (second compound 10 µM, first compound 0.1 µM): 22.5%
viability, T/C (second compound 10 µM, first compound 0.316 µM): 17.1%
viability, T/C (second compound 10 µM, first compound 1 µM): 13.4%
